In patent US20110200618A1, “ERBB4 INHIBITORS AND USES THEREOF IN TREATMENT OF NEUROPSYCHIATRIC DISORDERS” (priority 2008, published 2011):

Experiments:
Assay type in all cases: cell-based
[1] = test system: NRG1 induced ERK activation; experiment: NRG1 induced ERK activation in human olfactory epithelial (hOE) cultures, western blot; details: healthy person, inhibitors 20 min, then 100 ng/ml NRG1 10 min, 10 μM U0126, 10 nM wortmannin, 100 nM K-252, 2.5 μM AG1478, 1 μM AG879
Experimental: Protein extracts were analyzed for the expression of p-ERK and glyeraldehyde 3-dehydrogenase (GAPDH). U, 10 μM of U0126: W, 10 nM of wortmannin: K, 100 nM K-252, 2.5 μM of AG1478 and 1 μM of AG879;
Protein extracts were analyzed for the expression of p-ERK and glyceraldehyde 3-dehydrogenase (GAPDH). (A) A representative western blotting (B) p-ERK intensities were normalized with respect to GAPDH, which were then used to calculate percent inhibition.
As an internal control experiment, the cells were also incubated with inhibitors for ERK, AKT or trkb activation, U0126, wortmannin or K-252 respectively.

activation of AKT = experiment: NRG1 stimulation of post-mortem mouse brain tissues after 60 min pre-incubation, AKT activation; details: post-mortem mouse brain tissue slices, GSK compound at 10 μM, 100 ng/ml NRG1
activation of ERK = experiment: NRG1 stimulation of post-mortem mouse brain tissues after 60 min pre-incubation, ERK activation; details: post-mortem mouse brain tissue slices, GSK compound at 10 μM, 100 ng/ml NRG1, vehicle control also failed to respond to NRG1
Experimental: Protein extracts were analyzed for the expression of p-ERK;
To enhance the permeability of the inhibitors, tissue slices were pre-incubated with the inhibitors for 60 min before added with NRG1.

[2] = test system: NRG1 induced ERK activation; experiment: NRG1 stimulation of post-mortem human prefrontal cortex tissues, ERK activation; details: post-mortem PFC of healthy control; 2.5 μM AG1478 pre-incubated 15 min, 100 ng/ml NRG1
Experimental: NRG1 stimulation of human post-mortem PFC. 100 mg of post-mortem brain tissues of a healthy control subject were incubated with or without 100 ng/ml of NRG1 in the presence or absence of 2.5 μM AG1478. Protein extracts were analyzed for p-ERK and ERK;
Protein extracts were analyzed for the expression of ERK, AKT and GSK and their phosphorylated counterparts;
erbB stimulation/inhibition experiment wastested in post-mortem brain tissues. FIG. 2 represents an experiment, in which the PFC of a healthy control subject was stimulated with NRG1 in the presence of AG1478. In this experiment, the tissues were incubated with the inhibitor for 15 min before added with 100 ng/ml of NRG1.
GSK1495829A was tested in post-mortem mouse and human brain tissues. FIG. 4 represents an experiment, in which the PFC tissues of a healthy control subject were pre-incubated with varied concentrations of the inhibitor for 15 min before the ligand stimulation with 100 ng/ml of NRG1. […] One possible explanation could be that the brain tissues are less permeable to the inhibitors than OE culture cells.

Row | SMILES | NRG1 induced p-ERK with respect to GAPDH [1] | activation of AKT (activation of AKT) | activation of ERK (activation of ERK) | NRG1 induced ERK activation (ratio p-ERK to ERK) [2]
1 | CC(C)(C)c1cc(C=C(C#N)C(N)=S)cc(C(C)(C)C)c1O [AG 879, α-Cyano-(3,5-di-t-butyl-4-hydroxy)thiocinnamide] | attenuated |  |  | 
2 | COc1cc2ncnc(Nc3cccc(Cl)c3)c2cc1OC [AG 1478, 4-(3-Chloroanilino)-6,7-dimethoxyquinazoline] | attenuated | did not reduce | did not reduce | significantly reduced
3 | N#CC(=C(/N)Sc1ccccc1N)/C(C#N)=C(\N)Sc1ccccc1N [U0126] | significantly reduced |  |  | 
